# Results taken from ChEMBL document CHEMBL1156644, “Cembrane diterpenes from the gorgonian Leptogorgia laxa” (2008).
# Columns and labels:
# Type in all cases: functional
# HT-29 = assay: Cytotoxicity against human HT29 cells by SRB method
# MDA-MB-231 = assay: Cytotoxicity against human MDA-MB-231 cells by SRB method
# A549 = assay: Cytotoxicity against human A549 cells by SRB method
SMILES,GI50 (HT-29),GI50 (MDA-MB-231),GI50 (A549)
C=C(C)[C@@H]1CC/C(C)=C/CC/C(C)=C\C(=O)C[C@@]2(C)O[C@@H]2C1 [LEPTODIENONE A],14.9 µM,16.2 µM,
C=C(C)[C@@H]1CC/C(C)=C/CC/C(C)=C/C(=O)C[C@@]2(C)O[C@@H]2C1 [LEPTODIENONE B],10.9 µM,6.3 µM,5.6 µM
